Patent US20190381086A1, “INHIBITION OF NEDDYLATION USING GLYCYL-tRNA SYNTHETASE INHIBITORS” (The Scripps Research Institute, priority 2015, published 2019)

System: COLO 205
Test: NCI 60 Cell One-Dose Screen
Assay type: cell-based, human
Conditions: COLO 205, Colon Cancer; single dose 10^-5 M

## NCC(=O)NS(=O)(=O)OC[C@H]1O[C@@H](n2cnc3c(N)ncnc32)[C@H](O)[C@@H]1O [GlySA, glycylsulfamoyladenosine]
  Growth inhibition count (%): 48.51%
